Experiment [1] in a line: Production of paclitaxel-resistant cells by repeated paclitaxel treatment. The class given is cell-based. As to conditions: paclitaxel raised in increments of 0.5 nM over passages; read-out: IC50 value of paclitaxel at which the resistant cells did not die. The protocol: In particular, parental cells were treated with paclitaxel at a small concentration of 0.5 nM, and alive cells were repeated treated with paclitaxel three or four times while being passaged.

Experiment [2] has as its system MCF10CAT1k.cl2 (M-II) and MCF10CA1a.cl1 cells. Kind of experiment: MTT assay of paclitaxel resistance after treatment with LMCD1-containing conditioned media. Format: cell-based, human. As to conditions: cells treated with conditioned media of LMCD1-overexpressing MCF10CA1a.cl1 cells. The protocol: For MTT assay to examine resistance to paclitaxel, the cells were seeded in 96 wells at a density of 3,000 cells per well and incubated for 24 hours. The culture solution was removed, and a culture solution containing the concentrated conditioned media acquired from LPCX and LMCD1-overexpressing MCF10CA1a.cl1 cells was added to each well to a final volume of 100 μl/well. After incubation for 72 hours, the culture solution was removed from the culture, and 0.5 mg/ml of 3-(4,5-dimethylthiazol-2-yl)-2,5-diphenyltetrazolium bromide (MTT) was added to each well, followed by incubation for 2 hours. PBS containing an MTT solution was carefully removed, and 200 μl of dimethyl sulfoxide was added to each well, followed by incubation at room temperature for 5 minutes. Absorbance at 580 nm was measured using a 96-well microplate detector (Molecular Devices).
Background: Tetrazolium assays rely on reduction of a dye to a coloured formazan, in cell work by metabolically active cells.

The subject of experiment [3] is LMCD1-overexpressing MCF10CA1a.cl1 cells. Kind of experiment: MTT assay of susceptibility to paclitaxel in LMCD1-overexpressing cells. Format: cell-based, human. As to conditions: MCF10CA1a.cl1 cells when LMCD1 was overexpressed, 72 hours. The protocol:
To investigate whether LMCD1 protein-overexpressing breast cancer cells have resistance to a taxane-based anticancer agent, an MTT assay, which is used to evaluate cell viability, was performed on MCF-10CA1a.cl1, which are human MCF-10A-based breast cancer cell lines, and MDA-MB231. The MCF-10CA1a.cl1 and MDA-MB231 cell lines are characterized as malignant breast cancer cell lines with high metastasis.
In particular, human MCF-10A-based breast cancer cell lines, i.e., MCF-10CA1a.cl1 and MDA-MB231, were maintained in a DMEM culture solution containing 10% fetal bovine serum and 1% penicillin/streptomycin (WeIGENE) in a CO2 incubator at 37° C.
To overexpress the LMCD1 protein in cells, LMCD1 was cloned into retroviral vector pLPCX, and LMCD1 retrovirus was obtained using Plat-GP cells. The metastatic breast cancer cells were infected with the LMCD1 retrovirus, LMCD1 protein-overexpressing cells were selected using puromycin, and then the selected cells were incubated in a DMEM culture solution containing 10% fetal bovine serum and 1% penicillin/streptomycin (WeIGENE) in a CO2 incubator at 37° C.
The cells were seeded in 96 wells at a density of 3,000 cells per well and incubated for 24 hours. […] Absorbance at 580 nm was measured using a 96-well microplate detector (Molecular Devices).

In experiment [4] the test system is MCF10CA1a.cl1 cells, MDA-MB231 cells. Kind of experiment: MTT assay of paclitaxel resistance after Smad3 EPSM adenovirus infection. The class given is cell-based, human. From the text:
GFP, Smad3 wild-type, C-terminal phosphorylation-inhibiting mutant (3SA), Smad3 linker phosphorylation-activating mutant (STD), and a Smad3 linker phosphorylation-inhibiting mutant (EPSM) adenovirus were supplied from Dr. Sushil G. Rane (NIDDK, NIH, Bethesda, Md.). To measure transduction efficiency, GFP adenovirus was used as a control. The cells were transfected with 75 to 100 virus particles/cell in a cell solution, and each transfection procedure was repeated three times.
In particular, MCF10CA1a.cl1 cells, MDA-MB231 cells, and the cells produced according to Example 3-1 were seeded in 96-wells at a density of 3,000 cells/well and incubated for 24 hours. The culture solution was removed and a culture solution containing paclitaxel or docetaxel was added to each well to a final volume of 100 μl/well. After incubation for 72 hours, the culture solution was removed from the culture, and 0.5 mg/ml of 3-(4,5-dimethylthiazol-2-yl)-2,5-diphenyltetrazolium bromide (MTT) was added to each well, followed by incubation for 2 hours. Media containing an MTT solution was carefully removed, and 200 μl of dimethyl sulfoxide was added to each well, followed by incubation at room temperature for 5 minutes. Absorbance at 580 nm was measured using a 96-well microplate detector (Molecular Devices).

Experiment [5] has as its system LMCD1 promoter in MCF10CA1a.cl1 cells. Description: LMCD1 promoter luciferase assay with TGF-β stimulation. The class given is cell-based, human. As to conditions: 3 ng/ml TGF-β, 24 hours, Smad3 EPSM adenovirus-infected cells. The procedure:
In particular, for the LMCD1 promoter analysis, MCF10CA1a.cl1 cells were infected with GFP and Smad3. EPSM adenovirus for 2 days, and then transiently transfected with an Lmcd1 promoter using FuGENE HD (Promega). 24 hours before harvesting, the cells were stimulated with 3 ng/ml of TGF-β. Luciferase activity was analyzed using a Luciferase Assay System kit (Promega) in accordance with the manufacturer's protocol. All assays were performed in triplicate, and all values were normalized to transfection efficiency as determined by β-galactosidase activity.

The subject of experiment [6] is LMCD1 mRNA in MDA-MB231 cells. Kind of experiment: RT-PCR of LMCD1 mRNA after TGF-β treatment. Format: cell-based, human. The note with it: 5 ng/ml TGF-β, 24 hours, Smad3 EPSM adenovirus-infected cells. The protocol: For the measurement of LMCD1 mRNA, MDA-MB231 cells were infected with GFP and Smad3. EPSM adenovirus for 2 days, and then 2 hours before TGF-β treatment, the cells were pre-treated with 10 μM of SB431542 and treated with 5 ng/ml of TGF-β, followed by incubation for 24 hours. Total RNA was extracted from the cells using a TRIzol reagent (Invitrogen) in accordance with the manufacturer's protocol. The extracted RNA was converted into cDNA using M-MLV reverse transcriptase (Promega). The cDNA was synthesized and subjected to RT-PCR using a specific primer pair by using an AccuPower™ PCR PreMix kit (Bioneer Co.). Gene mRNAs were normalized to GAPDH.

Regarding `CC(=O)O[C@H]1C(=O)[C@@]2(C)[C@H]([C@H](OC(=O)c3ccccc3)[C@]3(O)C[C@H](OC(=O)[C@H](O)[C@@H](NC(=O)c4ccccc4)c4ccccc4)C(C)=C1C3(C)C)[C@]1(OC(C)=O)CO[C@@H]1C[C@@H]2O` [paclitaxel], the half-maximal inhibitory concentration (IC50) in experiment [1] was found to be 50 nM. Moreover, the “resistance to paclitaxel (MTT)” value in experiment [2] was “significantly increased”. Also, the “resistance to paclitaxel (cell viability, MTT)” value in experiment [3] was “increased”. Further, in experiment [4] (LMCD1 depleted in Smad3 EPSM adenovirus-infected cells (EPSM-SV-shLmcd1 #1)), the “susceptibility to paclitaxel (MTT)” value is “restored”. Further, in experiment [4] (Smad3 linker phosphorylation blocked (EPSM adenovirus), compared to control), the “paclitaxel resistance (cell viability, MTT)” value is reported as “induced”.

As for TGF-β, the “LMCD1 transcriptional activity (luciferase)” value in experiment [5] is listed as “increased”. In addition, in experiment [6], the “LMCD1 mRNA expression level” value is “increased”.

As usually defined, the IC50 is the concentration needed to halve the response being measured.

The values above are taken from patent US20190360054A1, “METHOD FOR DIAGNOSIS OF METASTATIC CANCER OR TAXANE-BASED DRUG-RESISTANT CANCER BY USING LMCD1 PROTEIN AND GENE CODING THEREFOR” (AICT (ADVANCED INSTITUTES OF CONVERGENCE TECHNOLOGY), priority 2016, published 2019).
